Test results reported in patent publication US10874637B2, “Methods and pharmaceutical compositions for the treatment of neurodegeneration with brain iron accumulation” (INSERM (Institut National de la Santé et de la Recherche …, priority 2016, dated 2020).
Entries after “also recorded” stand apart in the source; their conditions may differ.

Experiments:
iron amount = conditions: treatment increasing TfR1 palmitoylation; cited from earlier work
liver and ovarian cancer = conditions: via induction of TfR1 palmitoylation and reduction of its cell-surface levels; cited from earlier work
TfR1 = TfR1 palmitoylation assay in cultured skin fibroblasts (fatty acyl exchange chemistry); assay type: cell-based, human; conditions: control and NBIA fibroblasts, 25 μM artesunate for 48 h
Experimental: Skin fibroblasts were isolated from patients 1-2 and from four NBIA patients carrying biallelic PANK2, PLA2G6, C19ORF12 and FA2H mutations (Supplementary Table 2). Fibroblasts were grown in DMEM (Life technologies) medium supplemented with 10% fetal beef serum (FBS), 2 mM L-glutamine, 2.5 mM pyruvate, 100 μg/ml streptomycin, 100 U/ml penicillin at 37° C. For treatment with ferric ammonium citrate (FAC), 90% confluent cells were incubated for 72 h with or without 100 μM FAC in serum-free DMEM (i.e. Tf free). HeLa cells were grown in the same medium. TfR1 palmitoylation in cultured skin fibroblasts was modified from^15. Briefly, cells were lysed on ice in a DTT-free cell lysis buffer and endogenous TfR1 was immunoprecipitated with mouse anti-TfR1 antibody (Zymed) with protein G magnetic beads (Biorad). After washing with PBS, beads were incubated overnight with 50 mM N-ethylmaleimide (NEM) at 4° C., washed 3 times with PBS and then incubated with 1 M hydroxylamine (HA) at room temperature for 2 hours. After three washes, the beads were incubated with 50 mM HPDP-Biotin (Thermo) in dark for 2 hours. Biotin-labeled TfR1 level was determined by immunoblotting in non-reducing conditions using a goat anti-biotin antibody (Thermo) while immunoblotting with rabbit anti-TfR1 antibody (Abcam) was used as loading control.

ferritin (FTH) = test: Western blot of ferritin (FTH) steady state levels in fibroblasts; assay type: cell-based, human; conditions: control and NBIA fibroblasts, artesunate treatment (25 μM, 48 h)
Experimental: Skin fibroblasts were isolated from patients 1-2 and from four NBIA patients carrying biallelic PANK2, PLA2G6, C19ORF12 and FA2H mutations (Supplementary Table 2). Fibroblasts were grown in DMEM (Life technologies) medium supplemented with 10% fetal beef serum (FBS), 2 mM L-glutamine, 2.5 mM pyruvate, 100 μg/ml streptomycin, 100 U/ml penicillin at 37° C. For treatment with ferric ammonium citrate (FAC), 90% confluent cells were incubated for 72 h with or without 100 μM FAC in serum-free DMEM (i.e. Tf free). HeLa cells were grown in the same medium. Cultured skin fibroblasts or HeLa cells were harvested on ice by scraping in reducing or non-reducing cell lysis buffer. SDS-PAGE was performed on whole-cell protein extracts. Immunodetections were performed in PBS with 5% milk, 0.05 Tween20 (SIGMA) using the following antibodies: rabbit anti-CRAT (HPA022815, Sigma), rabbit anti-ACOT8 (SAB4500009 SIGMA), mouse anti-REPS1 (ab69221), mouse anti-SOD1 (ab86454), mouse anti-TfR1 (Zymed 136890), rabbit anti-ferritin (ab75973), rabbit anti-IRP1 (ab126595), rabbit anti-IRP2 (ab80339), mouse anti-GRIM19 (ab110240), rabbit anti-catalase (ab16731), rabbit anti-FBXLS (ab140175), rabbit anti-LC3B (ab51520) and mouse anti-actin antibodies (ab8226). […]

| Compound | iron amount (iron amount) | liver and ovarian cancer growth (liver and ovarian cancer) | TfR1 palmitoylation (TfR1) | ferritin (FTH) steady state levels (indicator of iron content) (ferritin (FTH)) |
| --- | --- | --- | --- | --- |
| dihydroartesunate | reduces iron amount |  |  |  |
| C[C@H]1[C@H](OC(=O)CCC(=O)O)O[C@@H]2O[C@@]3(C)CC[C@H]4[C@H](C)CC[C@@H]1[C@@]24OO3 [artesunate, (3R,5aS,6R,8aS,9R,10S,12R,12aR)-Decahydro-3,6,9-trimethyl-3,12-epoxy-12H-pyrano [4,3-j]-1,2-benzodioxepin-10-ol, hydrogen succinate] |  | inhibit liver and ovarian cancer growth | enhanced TfR1 palmitoylation; also recorded: improved TfR1 palmitoylation | decreased ferritin steady state level |
